From article PMC5824344 (ACS Chemical Biology, 2017)
“Also recorded” adds a separate entry of the source.

Legend:
[1] = test system: DENV2 strain 16681 in primary human MDMΦ; design: method as in PMID 23070155; details: MDMΦ cells, same system; read-out: IC50 for DENV inhibition; cited from earlier work
[2] = test system: HCV (JFH-1) in Huh7.5 cells; experiment: HCV antiviral assay in Huh7.5 cells (infectious titer by TCID50 assay); assay type: cell-based, hepatitis C virus; details: MOI 2, 96 h, titration of 4 or 50 µm of 3
Method: Supplemental Figure 3: Antiviral activity of 4 in human hepatoma Huh7.5 cell line.
(A) Huh7.5 cells were infected with DENV (serotype 2, strain 16681, multiplicity of infection = 0.1) and treated with a titration of ToP-DNJ 4 or 50 µm of tocopherol 3 for 48 h. Infectious virus titer was measured by plaque assay on LLC-MK2 cells. Counts were normalized to 100% for untreated samples.
DENV eﬀect at the concentrations tested. (B) Huh7.5 cells were infected with HCV (JFH-1, multiplicity of infection = 2) and treated with a titration of ToP-DNJ 4 or 50 µm tocopherol 3 for 96 h. Infectious virus titer was measured by TCID50 assay on […]
tested. In both panels, each data point represent the mean of triplicates, with error bars showing standard error of the mean (GraphPad Prism). […]
Huh7.5 cells were seeded in a 96-well plate at a density of 5× 10^3 cells/well in 100 µL growth media. […] The supernatant was harvested, and infectious viral titre assessed immediately in the TCID50 assay.
Huh7.5 cells were seeded in a 96-well plate at a density of 2× 10^4 cells/well in 100 µL of growth media and incubated for 18 h. The supernatants to be evaluated were diluted 1:10 in growth media, and 7 serial half-log10 dilutions were subsequently prepared in the same media. […]
each well was scored as either positive (≥ 5 stained cells) or negative. TCID50 values were calculated according to the method of Reed and Muench.8 […]

Row | Compound | IC50 [1] | anti-HCV effect (infectious virus titer) [2]
1 | CCCCN1CC(O)C(O)C(O)C1CO [Compound 2, N-butyl-D-1-deoxynojirimycin, reference compound] | 6 µM | 
2 | Cc1c(C)c2c(c(C)c1OCCCCCN1CC(O)C(O)C(O)C1CO)CCC(C)(CCCC(C)CCCC(C)CCCC(C)C)O2 (centres unmarked) [Compound 4, 5′-tocopheroxypentyl-DNJ] |  | neither an anti-DENV nor anti-HCV effect was observed; also recorded: Neither 4 nor 3 showed an anti-HCV eﬀect
